The results in this text go back to patent US11946094B2, “Combination therapies and methods of use thereof” (Augusta University Research Institute, Inc., priority 2017, dated 2024).

The subject of this experiment is OVCAR-8 cells. The experiment in a line: Drug-siRNA combination screen: 346-compound anticancer library at 100 nM, CCK-8 viability. The conditions noted are these: OVCAR-8; for Score (sum of observed SD values for 18 genes): drug 100 nM plus siRNA knockdown of each of 18 genes, distance VAB−VA×VB in SD, single gene contributes at most +5 / −5, negative = synergy, positive = antagonism; for synergy / antagonism of drug with gene knockdowns, in words / number of genes (of 18) whose knockdown synergizes with the drug: drug 100 nM; for synergy / antagonism of drug with gene knockdowns, in words: panel of 18 siRNA knockdowns; for number of genes (of 18) whose knockdown synergizes with the drug: siRNA knockdown.

Description: Comparisons of drug effect were performed using data generated on the same day. A minimum of two replicates was performed with drug library screening and a minimum of three replicates was done for all other tests.
Combinatorial effects were classified using two measures of combinatorial action: 1) the coefficient of drug interaction (CDI), defined as (VAB/(VA×VB)) and 2) the distance in standard deviation (SD) of VAB−(VA×VB). […] In confirmation studies significance was determined using a Student's T-test (two-tailed, unpaired) with p<0.05 indicating significance.
To measure the effect of a gene on drug effect, comparisons were made between high expressers of each gene and the wild type cells exposed to sham reagents.
In theory, CDI<1 is indicative of synergy while CDI>1 is indicative of antagonism or additive effect in a multiplicative model.

For the compound `FC(F)c1nc2ccccc2n1-c1nc(N2CCOCC2)nc(N2CCOCC2)n1` [ZSTK474], the “Score (sum of observed SD values for 18 genes)” value was -52.94 SD and the “synergy / antagonism of drug with gene knockdowns, in words” value (“synergy / antagonism of drug” for short) is “synergy to the vast majority of genes”.

With `O=C(Nc1ccccc1-c1cn2c(CN3CCNCC3)csc2n1)c1cnc2ccccc2n1` [SRT1720], the “Score (sum of observed SD values for 18 genes)” value is on record as −34.27 SD.

For the compound `O=C(NOCC1CC1)c1ccc(F)c(F)c1Nc1ccc(I)cc1Cl` [CI-1040], the “Score (sum of observed SD values for 18 genes)” value is listed as −45.66 SD and the “synergy / antagonism of drug” value is “among the top synergistic compounds”.

As to `Oc1cccc(-c2nc(N3CCOCC3)c3oc4ncccc4c3n2)c1` [PI-103], the “Score (sum of observed SD values for 18 genes)” value is recorded as -56.96 SD and the “synergy / antagonism of drug” value is “synergy to the vast majority of genes”.

Regarding `CC(C)C[C@H](NC(=O)CNC(=O)c1cc(Cl)ccc1Cl)B1OC(=O)C(CC(=O)O)(CC(=O)O)O1` [MLN9708], the “Score (sum of observed SD values for 18 genes)” value was −34 SD.

Regarding `Cc1cccc(-c2[nH]c(C(C)(C)C)nc2-c2ccc3nccnc3c2)n1` [SB 525334], the “Score (sum of observed SD values for 18 genes)” value is on record as −32.05 SD.

As for `O=C(Cc1ccc(-c2ccc(OCCN3CCOCC3)cc2)cn1)NCc1ccccc1` [KX2-391], the “Score (sum of observed SD values for 18 genes)” value was 13.4 SD.

For the compound `COc1ccc(C2=N[C@@H](c3ccc(Cl)cc3)[C@@H](c3ccc(Cl)cc3)N2C(=O)N2CCNC(=O)C2)c(OC(C)C)c1` [Nutlin-3], the “Score (sum of observed SD values for 18 genes)” value is on record as −5.25 SD.

Regarding `C/C(=C\c1csc(C)n1)[C@@H]1C[C@@H]2O[C@]2(C)CCC[C@H](C)[C@H](O)[C@@H](C)C(=O)C(C)(C)[C@@H](O)CC(=O)O1` [Epothilone B], the “Score (sum of observed SD values for 18 genes)” value was found to be 17.57 SD.

`CC1(COc2ccc3c(c2)ncn3-c2ccc3cccc(N4CCC(N)CC4)c3n2)COC1` [Crenolanib]: the “Score (sum of observed SD values for 18 genes)” value is listed as −18.09 SD.

For `C[C@H](NC(=O)Cc1cc(F)cc(F)c1)C(=O)N[C@H](C(=O)OC(C)(C)C)c1ccccc1` [DAPT-(GSI-IX)], the “Score (sum of observed SD values for 18 genes)” value is listed as 12.69 SD.

As for `C[C@@H](N)[C@H]1CC[C@H](C(=O)Nc2ccncc2)CC1.Cl.Cl` [Y-27632 2HCI], the “Score (sum of observed SD values for 18 genes)” value is −28.91 SD.

Consider `Cc1csc(-c2nnc(Nc3ccc(Oc4ncccc4-c4ccnc(N)n4)cc3)c3ccccc23)c1` [AMG 900], for which the “Score (sum of observed SD values for 18 genes)” value was determined as 11.64 SD.

Consider `O=C(O)c1ccc(-c2c[nH]c3ncc(-c4ccccc4)cc23)cc1C1CCCC1` [GSK650394], for which the “Score (sum of observed SD values for 18 genes)” value is 12.12 SD.

`C[C@@H]1CCN(C(=O)CC#N)C[C@@H]1N(C)c1ncnc2[nH]ccc12` [Tofacitinib]: the “Score (sum of observed SD values for 18 genes)” value was −13.15 SD.

Take `C=CC(=O)N1CCC[C@@H](n2nc(-c3ccc(Oc4ccccc4)cc3)c3c(N)ncnc32)C1` [Ibrutinib]: the “Score (sum of observed SD values for 18 genes)” value is reported as -58.62 SD.

As to `CN(C)CCOc1ccc(-c2nc(-c3ccncc3)c(-c3ccc4c(c3)CC/C4=N\O)[nH]2)cc1` [SB590885], the “Score (sum of observed SD values for 18 genes)” value was found to be 27.34 SD and the “synergy / antagonism of drug” value is “antagonistic with multiple genes”.

`CN1CCN(CCOc2cc(OC3CCOCC3)c3c(Nc4c(Cl)ccc5c4OCO5)ncnc3c2)CC1` [Saracatinib]: the “Score (sum of observed SD values for 18 genes)” value is given as -53.14 SD.

Take `Cn1cc(-c2ccc3nnc(C(F)(F)c4ccc5ncccc5c4)n3n2)cn1` [JNJ−38877605]: the “Score (sum of observed SD values for 18 genes)” value is recorded as 2.72 SD.

Regarding `COc1ccc(-c2ccc3c(N4CCOCC4)nc(N4C[C@@H](C)O[C@@H](C)C4)nc3n2)cc1CO` [Ku-0063794], the “Score (sum of observed SD values for 18 genes)” value is reported as −41.94 SD.

As for `COc1ccccc1OCC(O)CN1CCN(CC(=O)Nc2c(C)cccc2C)CC1` (stereo not drawn) [Ranolazine], the “Score (sum of observed SD values for 18 genes)” value is given as −11.08 SD.

As for `O=c1cc(-c2cccc3c2Sc2ccccc2S3)oc(N2CCOCC2)c1` [KU-55933], the “Score (sum of observed SD values for 18 genes)” value is recorded as −14.37 SD.

Turning to AZ 3146, the “Score (sum of observed SD values for 18 genes)” value was −22.56 SD.

Turning to `Cn1cnc2c(F)c(Nc3ccc(Br)cc3Cl)c(C(=O)NOCCO)cc21` [Selumetinib], the “Score (sum of observed SD values for 18 genes)” value was -63.99 SD and the “number of genes (of 18) whose knockdown synergizes with the drug” value was found to be 16 genes.

`CC[C@@H](C(=O)[C@@H](C)[C@@H](O)[C@H](C)[C@@H]1O[C@@H]([C@@H](CC)C(=O)O)CC[C@@H]1C)[C@H]1O[C@]2(C=C[C@@H](O)[C@]3(CC[C@@](C)([C@H]4CC[C@](O)(CC)[C@H](C)O4)O3)O2)[C@H](C)C[C@@H]1C` [Salinomycin]: the “Score (sum of observed SD values for 18 genes)” value is reported as −21.61 SD.

Regarding `COc1cc(Nc2ncc(F)c(Nc3ccc4c(n3)N(COP(=O)(O)O)C(=O)C(C)(C)O4)n2)cc(OC)c1OC` [Fostamatinib], the “Score (sum of observed SD values for 18 genes)” value was −4.27 SD.

For `Cc1cnc(Nc2ccc(OCCN3CCCC3)cc2)nc1Nc1cccc(S(=O)(=O)NC(C)(C)C)c1` [Fedratinib], the “Score (sum of observed SD values for 18 genes)” value was 56.68 SD.

For the compound `COc1ncc(-c2ccc3nccc(-c4ccnnc4)c3c2)cc1NS(=O)(=O)c1ccc(F)cc1F` [GSK2126458], the “Score (sum of observed SD values for 18 genes)” value is reported as −22.4 SD.

On to `C[C@@H](O[C@H]1OCCN(Cc2n[nH]c(=O)[nH]2)[C@H]1c1ccc(F)cc1)c1cc(C(F)(F)F)cc(C(F)(F)F)c1` [Aprepitant], for which the “Score (sum of observed SD values for 18 genes)” value is reported as −23.29 SD.

With `CCOC(=O)C1=C[C@]2(CC)CCCN3CCc4c(n1c1ccccc41)[C@@H]32` [Vinpocetine], the “Score (sum of observed SD values for 18 genes)” value is reported as −1.42 SD.

As to `C[C@]12CCC(=O)C(O)=C1CC[C@@H]1[C@@H]2CC[C@]2(C)C(=O)CC[C@@H]12` [Formestane], the “Score (sum of observed SD values for 18 genes)” value is −14.97 SD.

Turning to `C#Cc1cccc(Nc2ncnc3cc(OC)c(OCCCCCCC(=O)NO)cc23)c1` [CUDC-101], the “Score (sum of observed SD values for 18 genes)” value is on record as −46.83 SD; the “synergy / antagonism of drug” value was “mostly synergistic”; the “number of genes (of 18) whose knockdown synergizes with the drug” value turned out to be 11 genes.

Regarding `Nc1nc(Nc2ccc(S(N)(=O)=O)cc2)nn1C(=O)c1c(F)cccc1F` [JNJ - 7706621], the “Score (sum of observed SD values for 18 genes)” value is on record as 5.07 SD.

For the compound `CC1=C2C[C@H]3[C@@H](CC=C4C[C@@H](O)CC[C@@]43C)[C@@H]2CC[C@]12O[C@@H]1C[C@H](C)CN[C@H]1[C@H]2C` [Cyclopamine], the “Score (sum of observed SD values for 18 genes)” value came to 3.03 SD.

In the case of `Cn1cc(-c2ccc3nnc(Sc4ccc5ncccc5c4)n3n2)cn1` [SGX-523], the “Score (sum of observed SD values for 18 genes)” value is recorded as −8.5 SD.

On to WYE-354, for which the “Score (sum of observed SD values for 18 genes)” value is −13.86 SD.

As to `Cc1ccc(NC(=O)c2ccc(CN3CCN(C)CC3)cc2)cc1Nc1nc(-c2cccnc2)cs1` [Masitinib], the “Score (sum of observed SD values for 18 genes)” value is −4.23 SD.

On to `O=C(Nc1ccc(OC(F)(F)F)cc1)c1sccc1NCc1ccnc2ccccc12` [OSI-930], for which the “Score (sum of observed SD values for 18 genes)” value is reported as −0.3 SD.

As to `O=C(CCc1ccc(O)cc1)c1c(O)cc(O)cc1O` [Phloretin], the “Score (sum of observed SD values for 18 genes)” value is −16.21 SD.

Consider `O=C1[C@H](CC[C@H](O)c2ccc(F)cc2)[C@@H](c2ccc(O)cc2)N1c1ccc(F)cc1` [Ezetimibe], for which the “Score (sum of observed SD values for 18 genes)” value was −5.31 SD.

For `O=S(=O)(O)CCS` [Mesna], the “Score (sum of observed SD values for 18 genes)” value is recorded as −15.88 SD.

As to `NC(=O)c1ccc(I)c([N+](=O)[O-])c1` [Iniparib], the “Score (sum of observed SD values for 18 genes)” value is reported as −21.58 SD.

As for `COc1cccc2c1C(=O)c1c(O)c3c(c(O)c1C2=O)C[C@@](O)(C(=O)CO)C[C@@H]3O[C@H]1C[C@H](N)[C@H](O)[C@H](C)O1` [Doxorubicin], the “Score (sum of observed SD values for 18 genes)” value amounted to 15.09 SD.

As for `Nc1ccc(C(=O)Nc2cccc(-c3nc(N4CCOCC4)c4oc5ncccc5c4n3)c2)cn1` [YM201636], the “Score (sum of observed SD values for 18 genes)” value is on record as −32.89 SD.

On to `CC(C)C[C@H](NC(=O)CNC(=O)c1cc(Cl)ccc1Cl)B(O)O` [Ixazomib], for which the “Score (sum of observed SD values for 18 genes)” value is given as -52.76 SD.

As to `COc1c(C)cnc(Cn2cnc3c(Cl)nc(N)nc32)c1C` [BIIB021], the “Score (sum of observed SD values for 18 genes)” value is recorded as −33.01 SD and the “synergy / antagonism of drug” value is given as “Frequently among the top synergizing pairs”.

Regarding `COc1nc(C)cnc1NS(=O)(=O)c1cccnc1-c1ccc(-c2nnco2)cc1` [Zibotentan], the “Score (sum of observed SD values for 18 genes)” value was 10.07 SD.

For `N.N.O=C([O-])C1(C(=O)[O-])CCC1.[Pt+2]` [Carboplatin], the “Score (sum of observed SD values for 18 genes)” value is on record as −24.62 SD.

With `C[C@@H]1CN(CC(=O)Nc2ccc3c(c2)Cc2cccc(-c4cc(=O)cc(N5CCOCC5)o4)c2S3)C[C@H](C)O1` [KU-60019], the “Score (sum of observed SD values for 18 genes)” value is given as −25.5 SD.

Regarding `c1ccc(-c2nn3c(c2-c2ccnc4cc(OCCN5CCOCC5)ccc24)CCC3)nc1` [LY2109761], the “Score (sum of observed SD values for 18 genes)” value is reported as −40.45 SD.

Regarding `CC1(C)CNc2cc(NC(=O)c3cccnc3NCc3ccncc3)ccc21` [Motesanib Diphosphate], the “Score (sum of observed SD values for 18 genes)” value is reported as −12.16 SD.

On to `CCOc1cc2ncc(C#N)c(Nc3ccc(F)c(Cl)c3)c2cc1NC(=O)/C=C/CN(C)C` [Pelitinib], for which the “Score (sum of observed SD values for 18 genes)” value was -54.75 SD.

As for `CN1CC[C@H](c2c(O)cc(O)c3c(=O)cc(-c4ccccc4Cl)oc23)[C@H](O)C1` [Flavopiridol], the “Score (sum of observed SD values for 18 genes)” value is −23.63 SD.

`Cn1cnc([N+](=O)[O-])c1Sc1ncnc2nc[nH]c12` [Azathioprine]: the “Score (sum of observed SD values for 18 genes)” value is listed as −28.48 SD.

For the compound `CCCC(CCC)C(=O)[O-].[Na+]` [Sodium valproate], the “Score (sum of observed SD values for 18 genes)” value is on record as −17.88 SD.
